Data on 3 compounds can be found in patent US12275731B2, “Azaindole inhibitors of wild-type and mutant forms of LRRK2” (DANA-FARBER CANCER INSTITUTE, INC., priority 2018, dated 2025).

Holding throughout (assay): KinomeScan profiling
Assay type in all cases: binding

For experiment [1], the target named is CAMK1 (Homo sapiens, UniProt Q14012). The following applies: CAMK1, 1 μM; read-out: % control. The method, boiled down:
(§1)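 Test agents were profiled at a single concentration of 1 μM (DMSO vehicle) on a near-complete set of 468 kinases. Signal is reported relative to vehicle (100%) and a fully displacing control (0%).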

The target of experiment [2] is T1, LKB1 (Homo sapiens, UniProt Q15831).
T1 sequence (Q15831 1-433): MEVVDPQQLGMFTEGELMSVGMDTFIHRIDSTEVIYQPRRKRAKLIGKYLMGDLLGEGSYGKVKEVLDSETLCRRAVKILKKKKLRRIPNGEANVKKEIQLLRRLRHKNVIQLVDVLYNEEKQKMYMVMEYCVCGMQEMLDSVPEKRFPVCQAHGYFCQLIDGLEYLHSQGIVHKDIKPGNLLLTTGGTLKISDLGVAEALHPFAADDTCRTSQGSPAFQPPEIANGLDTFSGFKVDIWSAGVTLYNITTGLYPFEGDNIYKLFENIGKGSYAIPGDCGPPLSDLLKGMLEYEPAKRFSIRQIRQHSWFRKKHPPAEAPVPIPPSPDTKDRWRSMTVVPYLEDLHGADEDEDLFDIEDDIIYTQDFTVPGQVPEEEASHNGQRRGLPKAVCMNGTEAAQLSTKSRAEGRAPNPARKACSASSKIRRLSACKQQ
The following applies: LKB1, 1 μM; read-out: % control. The procedure, abridged:
as §1

The target of experiment [3] is T2, DYRK2 (Homo sapiens, UniProt Q92630).
T2 sequence (Q92630 1-601): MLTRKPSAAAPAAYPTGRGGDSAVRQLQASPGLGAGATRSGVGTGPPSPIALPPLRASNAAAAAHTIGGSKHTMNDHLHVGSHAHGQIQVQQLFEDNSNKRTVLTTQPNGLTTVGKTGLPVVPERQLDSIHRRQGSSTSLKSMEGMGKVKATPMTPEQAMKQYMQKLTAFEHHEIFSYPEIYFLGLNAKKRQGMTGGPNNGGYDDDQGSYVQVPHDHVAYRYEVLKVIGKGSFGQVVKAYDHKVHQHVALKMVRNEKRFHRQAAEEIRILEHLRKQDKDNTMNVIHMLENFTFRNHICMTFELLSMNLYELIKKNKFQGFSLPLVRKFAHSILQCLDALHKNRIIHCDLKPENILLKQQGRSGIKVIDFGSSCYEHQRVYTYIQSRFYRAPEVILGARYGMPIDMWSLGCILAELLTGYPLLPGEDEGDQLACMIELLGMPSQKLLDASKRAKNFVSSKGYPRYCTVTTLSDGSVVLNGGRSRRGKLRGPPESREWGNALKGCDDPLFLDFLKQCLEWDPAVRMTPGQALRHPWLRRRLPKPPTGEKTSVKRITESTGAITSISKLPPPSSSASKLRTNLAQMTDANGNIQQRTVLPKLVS
The following applies: DYRK2, 1 μM; read-out: % control. The procedure, abridged: as §1

Experiment [4] deals with RET(V804M) (Homo sapiens, UniProt P07949, V804M). The following applies: read-out: % control. The procedure, abridged:
as §1

The target in experiment [5] is PLK3 (Homo sapiens, UniProt Q9H4B4). The following applies: PLK3, 1 μM; read-out: % control. The method, boiled down: as §1
For experiment [6], the target named is T3, FLT3-autoinhibited (Homo sapiens, UniProt P36888).
T3 sequence (P36888 564-993 limits assumed): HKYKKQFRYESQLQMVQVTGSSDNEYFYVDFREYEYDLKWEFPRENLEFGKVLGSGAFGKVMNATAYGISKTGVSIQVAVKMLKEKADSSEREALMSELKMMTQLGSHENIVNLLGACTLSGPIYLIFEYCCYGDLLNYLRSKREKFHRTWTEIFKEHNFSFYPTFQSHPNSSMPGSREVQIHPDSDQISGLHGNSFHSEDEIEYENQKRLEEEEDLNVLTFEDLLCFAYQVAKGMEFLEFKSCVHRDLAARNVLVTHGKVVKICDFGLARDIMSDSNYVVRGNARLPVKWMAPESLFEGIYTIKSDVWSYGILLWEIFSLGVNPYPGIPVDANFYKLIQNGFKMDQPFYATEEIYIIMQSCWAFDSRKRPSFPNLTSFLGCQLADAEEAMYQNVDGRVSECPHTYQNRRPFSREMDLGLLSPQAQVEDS
The following applies: read-out: % control. The procedure, abridged:
as §1

Experiment [7] addresses T4, ACVR1B (Homo sapiens, UniProt P36896).
T4 construct: purchased KinomeScan®
T4 sequence (P36896 24-505): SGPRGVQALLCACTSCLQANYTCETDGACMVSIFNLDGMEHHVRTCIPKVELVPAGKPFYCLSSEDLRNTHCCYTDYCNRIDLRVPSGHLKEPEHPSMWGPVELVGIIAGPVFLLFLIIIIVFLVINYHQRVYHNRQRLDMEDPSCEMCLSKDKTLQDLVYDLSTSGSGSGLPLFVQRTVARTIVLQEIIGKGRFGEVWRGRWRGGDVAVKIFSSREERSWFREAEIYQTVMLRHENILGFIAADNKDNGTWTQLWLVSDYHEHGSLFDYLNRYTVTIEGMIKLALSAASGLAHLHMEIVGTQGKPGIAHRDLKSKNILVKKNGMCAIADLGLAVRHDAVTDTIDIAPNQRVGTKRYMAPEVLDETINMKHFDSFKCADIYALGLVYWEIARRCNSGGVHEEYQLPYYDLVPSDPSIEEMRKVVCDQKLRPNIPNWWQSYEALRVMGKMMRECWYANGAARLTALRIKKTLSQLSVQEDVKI
The following applies: read-out: % control. The procedure, abridged: as §1

PLK3, sequence (Q9H4B4 whole entry): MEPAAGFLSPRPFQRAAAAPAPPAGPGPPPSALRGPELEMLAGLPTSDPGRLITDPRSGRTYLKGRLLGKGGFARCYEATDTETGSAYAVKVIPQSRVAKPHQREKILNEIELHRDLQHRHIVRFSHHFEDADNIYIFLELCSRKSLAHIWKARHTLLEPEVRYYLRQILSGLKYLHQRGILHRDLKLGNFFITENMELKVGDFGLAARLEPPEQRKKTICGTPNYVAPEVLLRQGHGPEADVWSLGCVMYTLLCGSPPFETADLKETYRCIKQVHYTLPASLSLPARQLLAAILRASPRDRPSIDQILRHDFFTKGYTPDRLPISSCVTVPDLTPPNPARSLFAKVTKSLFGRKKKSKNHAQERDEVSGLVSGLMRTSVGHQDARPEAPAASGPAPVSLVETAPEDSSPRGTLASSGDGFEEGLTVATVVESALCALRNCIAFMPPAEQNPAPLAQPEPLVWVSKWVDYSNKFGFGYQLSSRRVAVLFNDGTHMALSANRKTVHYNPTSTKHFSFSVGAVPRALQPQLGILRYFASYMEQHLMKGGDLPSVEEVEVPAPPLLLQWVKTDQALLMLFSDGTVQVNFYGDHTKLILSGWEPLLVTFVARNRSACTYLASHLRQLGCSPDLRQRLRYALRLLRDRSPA
CAMK1, sequence (Q14012 whole entry): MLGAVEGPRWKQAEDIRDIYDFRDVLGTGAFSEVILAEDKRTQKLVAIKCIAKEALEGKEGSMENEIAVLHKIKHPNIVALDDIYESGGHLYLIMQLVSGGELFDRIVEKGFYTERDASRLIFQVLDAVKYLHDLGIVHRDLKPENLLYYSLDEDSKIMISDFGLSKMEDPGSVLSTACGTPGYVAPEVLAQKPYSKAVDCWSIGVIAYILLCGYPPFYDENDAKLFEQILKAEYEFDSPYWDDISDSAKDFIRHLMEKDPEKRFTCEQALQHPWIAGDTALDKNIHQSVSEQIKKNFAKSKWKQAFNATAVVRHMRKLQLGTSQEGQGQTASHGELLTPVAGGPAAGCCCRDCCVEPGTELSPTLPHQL
RET(V804M), sequence (P07949 29-1114 V804M): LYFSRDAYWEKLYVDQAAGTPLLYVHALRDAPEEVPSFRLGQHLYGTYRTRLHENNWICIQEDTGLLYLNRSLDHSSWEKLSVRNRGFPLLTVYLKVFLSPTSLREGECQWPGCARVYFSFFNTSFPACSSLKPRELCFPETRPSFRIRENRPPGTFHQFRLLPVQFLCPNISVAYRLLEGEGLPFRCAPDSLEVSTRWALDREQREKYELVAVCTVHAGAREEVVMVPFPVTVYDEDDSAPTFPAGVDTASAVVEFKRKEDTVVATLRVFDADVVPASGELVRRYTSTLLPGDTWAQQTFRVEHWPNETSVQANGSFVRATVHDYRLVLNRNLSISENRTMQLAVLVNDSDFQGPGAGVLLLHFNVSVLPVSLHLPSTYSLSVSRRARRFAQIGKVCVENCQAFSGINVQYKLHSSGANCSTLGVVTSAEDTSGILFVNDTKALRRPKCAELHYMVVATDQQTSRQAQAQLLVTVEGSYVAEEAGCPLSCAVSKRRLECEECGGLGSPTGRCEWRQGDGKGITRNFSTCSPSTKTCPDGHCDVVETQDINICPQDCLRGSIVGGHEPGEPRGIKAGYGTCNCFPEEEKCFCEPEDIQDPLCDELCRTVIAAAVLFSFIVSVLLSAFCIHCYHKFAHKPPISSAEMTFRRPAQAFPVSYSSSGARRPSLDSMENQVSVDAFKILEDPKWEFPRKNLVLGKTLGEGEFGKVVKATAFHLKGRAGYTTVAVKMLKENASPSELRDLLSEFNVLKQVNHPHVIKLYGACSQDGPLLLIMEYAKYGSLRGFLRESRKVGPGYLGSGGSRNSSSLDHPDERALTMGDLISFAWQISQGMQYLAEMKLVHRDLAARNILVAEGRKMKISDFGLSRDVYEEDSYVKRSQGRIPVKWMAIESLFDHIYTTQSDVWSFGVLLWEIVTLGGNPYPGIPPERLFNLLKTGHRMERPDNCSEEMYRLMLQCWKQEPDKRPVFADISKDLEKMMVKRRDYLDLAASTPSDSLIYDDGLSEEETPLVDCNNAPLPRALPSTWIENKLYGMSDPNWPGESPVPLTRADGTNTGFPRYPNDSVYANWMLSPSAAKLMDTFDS

In the case of `CNc1c(-c2ccc(C(=O)N3CCC(N4CCOCC4)CC3)cc2)cnc2[nH]cc(Cl)c12` [Compound 96, (4-(3-chloro-4-(methylamino)-1H-pyrrolo[2,3-b]pyridin-5-yl)phenyl)(4-morpholinopiperidin-1-yl)methanone], the remaining binding at 1 µM in experiment [1] amounted to 87%; in experiment [2], 91%; in experiment [3] it was 12%; in experiment [4], 61%; in experiment [5], 99%; in experiment [6] it was 93%. Also, in experiment [7], the remaining binding at 1 µM stood at 74%.
For the compound `O=C(c1ccc(-c2cnc3[nH]cc(Cl)c3c2NC2CCCC2)cc1)N1CCC(N2CCOCC2)CC1` [Compound 101, (4-(3-chloro-4-(cyclopentylamino)-1H-pyrrolo[2,3-b]pyridin-5-yl)phenyl)(4-morpholinopiperidin-1-yl)methanone], the remaining binding at 1 µM in experiment [1] came out at 98%; in experiment [2] it was 78%; in experiment [3], 100%; in experiment [4] it was 99%; in experiment [5], 84%; in experiment [6], 62%. The remaining binding at 1 µM in experiment [7] worked out at 98%.
As to `CNc1c(-c2cnn([C@H]3CCN(C(C)=O)C[C@@H]3F)c2)cnc2[nH]cc(Cl)c12` [Compound 77, 1-((3S,4S)-4-(4-(3-chloro-4-(methylamino)-1H-pyrrolo[2,3-b]pyridin-5-yl)-1H-pyrazol-1-yl)-3-fluoropiperidin-1-yl)ethan-1-one], the remaining binding at 1 µM is 84% in experiment [1]; 88% in experiment [2]; 49% in experiment [3]; 52% in experiment [4]; 78% in experiment [5]; 53% in experiment [6]. Also, the remaining binding at 1 µM in experiment [7] was found to be 83%.
